Legend:
Assay type in all cases: cell-based
[1] = test system: progerin (mutant lamin A); assay: Western blot of progerin (mutant lamin A) induced by UVB radiation; conditions: 5 μM amentoflavone prior to UVB 100 mJ/cm^2; cultured 6 days; cell extract from subject (FIG. 2)
Procedure: (§1) Cells of subjects […] were distributed in a 4-well chamber slide holding a medium prepared by adding 1% LSGS and 100 IU penicillin G to 106 medium at 100,000 cells/well. The cells were divided into a UVB-untreated negative control group, a UVB-treated group and a UVB/amentoflavone-treated group. The next day, the medium was replaced with 106 medium containing 1%
(§2) FBS. The amentoflavone-treated group was treated with 5 μM amentoflavone prior to UVB radiation. 24 hours later, after washing the well with PBS, UVB was irradiated at 100 mJ/cm^2 to the test groups. Then, after treating again with 106 medium containing 1% FBS, the cells were cultured at 37° C. for 6 days. The treated cells were subjected to western blot and immunofluorescence staining. For western blot, the cells were lysed using RIPA buffer (Sigma) and proteins were quantitated according to the Lowry's method. 10 μg of each protein was run on 4-12% Nupage gel (Invitrogen) and then transferred to NC membrane. The membrane was blocked with 5% BSA and reacted O/N at 4° C. with the lamin A mutant antibodies, progerin (Abcam) and p-H2AX (Millipore), diluted at 1:300 and 1:200, respectively, with 5% BSA. […] Then, after washing 3 times for 10 minutes with PBST, bands were detected using ECL and LAS3000.

[2] = test system: phosphorylated H2AX; assay: Immunofluorescence staining of phosphorylated H2AX after UVB radiation; conditions: 5 μM amentoflavone prior to UVB 100 mJ/cm^2; cultured 6 days; cells of the subject (FIG. 3)
Procedure: as §1
as §2, with “LAS3000. […]” for “LAS3000.”

[3] = test system: cells of the subject; assay: Immunofluorescence staining of lamin A: nuclear damage after UVB radiation; conditions: 5 μM amentoflavone prior to UVB 100 mJ/cm^2; cultured 6 days; cells of the subject (FIG. 3)
Procedure: as §1
as §2, with “LAS3000. […]” for “LAS3000.”

## O=c1cc(-c2ccc(O)c(-c3c(O)cc(O)c4c(=O)cc(-c5ccc(O)cc5)oc34)c2)oc2cc(O)cc(O)c12 [Amentoflavone]
[1]
  UVB-induced increase of progerin (mutant lamin A), western blot: decreased
[2]
  expression of phosphorylated H2AX, immunofluorescence: reduced
[3]
  structure of the cell nucleus (nuclear damage caused by lamin A defects), immunofluorescence: retained

— patent US20120022151A1, “METHOD FOR PREVENTING DAMAGE TO NUCLEAR MEMBRANE OF SKIN CELL BY ADMINISTERING AMENTOFLAVONE” (Amorepacific Corporation, priority 2010, published 2012)
